Consider 1 compound from US7875604B2, “Compounds that inhibit HIV particle formation” (University of Virginia Patent Foundation, priority 2004, dated 2011).

The test system of one data set is HeLa. The experiment in a line: HIV-1 Rev assay toxicity/non-specificity readout (Firefly Luciferase). It is filed as cell-based. As to conditions: 50% inhibition of Firefly Luciferase (toxicity/non-specificity), 24 hours; read-out: TC50 (the source's name). On the procedure: (§1) The eight compounds listed in Table 1 were also tested in an assay that measured HIV-1 Rev function. The HIV-1 Rev assay is based upon the use of a reporter for detecting whether drug candidates are capable of inhibiting the function of the viral Rev protein. The reporter used for these assays is the Renilla Luciferase protein, which is an enzyme that produces detectable light when mixed with certain chemicals. For this assay, a cell line has been developed in which the production of the reporter by the cells requires the function of HIV-1 Rev. Therefore, if a drug candidate inhibits the function of Rev, it decreases the amount of the reporter produced by the cells. By using Renilla Luciferase as the reporter, the inhibition of Rev is easily detected as a decrease in the amount of light produced by the cells when mixed with the appropriate chemicals. Furthermore, the cell line for this assay has been engineered to use a second similar reporter (Firefly Luciferase) that detects whether drug candidates are toxic.
Compounds were tested in the Rev assay using the maximum high-test concentration possible based on the supplied stocks as shown in Table 3. Compounds were prepared at a 2× high-test concentration by combining drug stock with tissue culture media at a ratio of 5 μL of drug to 995 μL of media. This 2× high-test sample was subsequently serially diluted in tissue culture media using 1/2 log dilutions. This series of 2× concentrated drug was subsequently diluted 1:1 by combining with an equal volume of cells in media in the 96-well plates used for the assay. Representative data for two of the compounds is also depicted in FIG. 5.
Leptomycin B is a control compound known to inhibit Rev function.

The target in a further data set is T1, HIV-1 Rev (Human immunodeficiency virus type 1 group M subtype B, UniProt P04618).
T1 construct: expressed in transfected cells
T1 sequence (P04618 whole entry, looked up): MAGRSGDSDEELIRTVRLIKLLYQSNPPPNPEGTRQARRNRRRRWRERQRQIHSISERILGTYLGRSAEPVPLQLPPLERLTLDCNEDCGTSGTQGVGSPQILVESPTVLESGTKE
Put plainly: cell-based. On the procedure:
as §1, with “The HIV-1 Rev assay is based upon the use of a reporter for detecting whether drug candidates are capable of inhibiting the function of the viral Rev protein.” left out, “chemicals.” for “chemicals. Furthermore, the cell line for this assay has been engineered to use a second similar reporter (Firefly Luciferase) that detects whether drug candidates are toxic.”
Compounds were tested in the Rev assay using the maximum high-test concentration possible based on the supplied stocks as shown in Table 3. Compounds were prepared at a 2× high-test concentration by combining drug stock with tissue culture media at a ratio of 5 μL of drug to 995 μL of media. This 2× high-test sample was subsequently serially diluted in tissue culture media using 1/2 log dilutions. This series of 2× concentrated drug was subsequently diluted 1:1 by combining with an equal volume of cells in media in the 96-well plates used for the assay.

Values joined by “and” are separate entries in the source; they are usually repeats but may differ in a detail not shown here. Identical values can stand only once.

Regarding `CCC(=C/[C@H](C)C/C=C/C(C)=C/[C@@H](C)C(=O)[C@@H](C)[C@H](O)[C@@H](C)C/C(C)=C/C(=O)O)/C=C/[C@@H]1OC(=O)C=C[C@@H]1C` [Leptomycin B, reference compound], the CC50 in the data set on HeLa is 20 nM and 19.2 nM. Moreover, at HIV-1 Rev (50% inhibition of Renilla Luciferase, 24 hours, HeLa reporter line, read-out: IC50), the concentration for half-maximal inhibition (IC50) (as a rule, the concentration at which inhibition is half-maximal) is 8.22 nM and 8.17 nM. Moreover, the “TI (TC50/IC50)” value at HIV-1 Rev (Rev assay) was 2.43 and 2.35.
